# Source: patent US20130303768A1, “METHOD AND SUBSTANCES FOR PREPARATION OF N-SUBSTITUTED PYRIDINIUM COMPOUNDS” (ROCHE DIAGNOSTICS OPERATIONS, INC., priority 2011, published 2013)
# Legend:
# GlucDH mut 2 = experiment: Enzymatic reduction of Acetyl-cNAD by GlucDH mut 2 with glucose; assay type: biochemical; details: 25° C., Tris-buffer pH 8.5, glucose, UV/VIS spectra after 30 min
# Method: Acetyl-cNADH and for comparison cNAD, cNADP were reduced by using GlucDH mut 2 (WO2010/094632) using the following conditions:
# A Dilution buffer (NaCl 0.2 mol/l; Tris 0.1 mol/l; pH 8.5) was prepared as follows: 11.7 g NaCl and 12.1 g Tris (=[…]) were dissolved in 900 ml bidest. water and the pH was adjusted to pH 8.5 by addition of HCL 1N and filled to 1.00 l with bidest. Water.
# Glucose-solution: 2.00 g D(+)-Glucose-Monohydrate were dissolved in 10.0 ml bidest. water. The solution is ready for usage after 2 h at room temperature.
# GlucDH2-stock-solution: 10.0 mg of the enzyme (Lyo) were dissolved in 1.00 ml Tris-buffer.
# Reduction of Acetyl-cNAD-solution (15 mmol/l): 9.90 mg Acetyl-cNAD (Mw=659.47 g/mol) were dissolved in 1.00 ml bidest. water.
# 100 μl GlucDH2-stock-solution were dissolved in 0.90 ml dilution buffer (dilution factor=10).
# 1. The tempered (25° C.) reagent solutions were pipetted into a 1 cm plastic cuvette as follows:
# (§1) After mixing and tempering to 25° C., the reaction was started by addition of 0.05 ml the above mentioned corresponding GlucDH2-solutions. An UV/VIS spectra was recorded after 30 min.
# [1] = UV/VIS absorption spectrum after enzymatic reduction; assay type: physicochemical; details: FIG. 1, reduced form
# Method: as §1
# This is a significant advantage for redox-based assays, since it allows to reduce or avoid the interference from auto-fluorescent compounds comprised in (biological) samples
absorption maximum [1],Molecule,coenzyme function for a dehydrogenase (GlucDH mut 2)
,CC(=O)c1ccc[n+]([C@@H]2C[C@H](COP(=O)([O-])OP(=O)(O)OC[C@H]3O[C@@H](n4cnc5c(N)ncnc54)[C@H](O)[C@@H]3O)[C@@H](O)[C@H]2O)c1 [Acetyl-cNAD],serves as a coenzyme for a dehyrogenase
about 380 nm,Acetyl-cNADH,
